Measurements from publication PMC4309560, “Creating Novel Activated Factor XI Inhibitors through Fragment Based Lead Generation and Structure Aided Drug Design” (PLoS ONE, 2015).

Key:
Human FIXa = Human FIXa (Homo sapiens, UniProt P00740); experiment: biochemical; details: read-out: FIXa % inhibition at 99 μM
Method: (§1) Enzymatic assay. […] Selected compounds were also screened against other serine proteases to evaluate their selectivity profiles.
(§2) Once the compounds were synthesized and characterized, enzymatic assays were performed to evaluate the inhibitory activity of the resulting compounds against FXIa and other serine proteases. […] IC50 values for the compounds were determined using equation: Q= V/(1+([I]/IC50)^n) Q denotes the assay readout, V denotes the uninhibited velocity of the enzyme, [I] denotes the inhibitor concentration, n denotes the slope and IC50 is the inhibitor concentration at V/2.

Human FXa = Human FXa (Homo sapiens, UniProt P00742); experiment: biochemical; details: read-out: FXa % inhibition at 99 μM
Method: as §1, §2

[1] = tested on: FXa, thrombin, trypsin, plasma kallikrein (PKK), FIXa, tissue plasminogen activator (tPA) and plasmin; experiment: Serine protease selectivity panel (statements on the whole panel); assay type: biochemical, human; details: relative to FXIa
Method: Enzymatic assay. […] Selected compounds were also screened against other serine proteases to evaluate their selectivity profiles. All protease activities were determined by chromogenic assays monitoring the release of para-nitroanilide at 405 nm.
It is important to achieve potent FXIa inhibitors with high selectivity vs. other serine proteases in order to minimize risk for adverse effects, particularly with regard to bleeding, which limits the utility of current antithrombotic drugs, e.g. dabigatran and rivaroxaban. Selectivity data for FXa, thrombin, trypsin, plasma kallikrein (PKK), FIXa, tissue plasminogen activator (tPA) and plasmin were therefore generated and are summarized in Fig. 6. […].
Once the compounds were synthesized and characterized, enzymatic assays were performed to evaluate the inhibitory activity of the resulting compounds against FXIa and other serine proteases. All protease activities were determined by chromogenic assays monitoring the release of para-nitroanilide at 405 nm. IC50 values for the compounds were determined using equation: Q= V/(1+([I]/IC50)^n) Q denotes the assay readout, V denotes the uninhibited velocity of the enzyme, [I] denotes the inhibitor concentration, n denotes the slope and IC50 is the inhibitor concentration at V/2.

rat FXIa = experiment: Species selectivity: rat FXIa potency; assay type: biochemical; details: rat vs human FXIa
Caco2 cells = experiment: Caco2 permeability; assay type: in vitro ADME; details: measured at pH 6.5
Method: A monolayer of Caco2 cells, cultured on semi-permeable polycarbonate surfaces, was used to study the permeability in the apical to basolateral direction. The process was atomized by a robotic Tecan EVO platform (Männerdorf, Switzerland) and 24-transwell plates from Costar (Cambridge, MA, USA). HBSS buffer pH 7.4 was dispensed to the basal side of the monolayer. […] Samples for quantitative analysis by LC/MS/MS were withdrawn before the addition of the test substrate and at 45 and 120 min post addition of the test substrate. During incubation the transwell plates were placed in a shaking incubator at 37°C between sampling. The peak areas were exported to Excel where Papp-values and recoveries were calculated. Twenty-two reference compounds with known human oral bioavailability were used to establish a correlation curve with Papp versus the fraction of the oral dose absorbed (fa).

Caco2 efflux = assay type: in vitro ADME; details: human, Caco-2; Caco2, Papp B to A / Papp A to B, pH 7.4 at side A
From the text: Efflux was studied in the same Caco2 cells with the modification that HBSS buffer pH 7.4 was used on both sides of the monolayer. The permeability was studied in the apical to basolateral direction (Papp AB) as well as in the basolateral to apical direction and (Papp BA). Efflux ratios were derived from the following equation: Papp BA/Papp AB.

rat hepatocytes = experiment: Rat hepatocyte metabolic stability assay; assay type: in vitro ADME
Method: Rat hepatocyte metabolic stability was determined in accordance with the method described by Jacobson et al.. Cryo preserved hepatocytes at a concentration of 10^6 viable cells/mL were used. After thawing, hepatocytes were incubated for 10 min to warm to 37°C and test compounds, dissolved in acetonitrile, were added to give a final concentration of 1 μM. At 0.5, 5, 15, 30, 45, 60, 80, 100 and 120 min, the incubation system was mixed and 20 μL aliquots were transferred at each time point to wells in a separate plate filled with 80 μL acetonitrile to stop the reaction. The quenching plate was then vortexed followed by centrifugation, and supernatants were analyzed by LC/MS/MS. Peak areas were determined from extracted ion chromatograms, and the in vitro intrinsic clearance (in vitro CLint, in μL/min/10^6 cells) of parent compound was calculated from the slope in the regression analysis of the natural logarithm of parent concentration vs. time curve.

In vivo rat PK = details: female, Sprague Dawley, plasma, intravenous; rat in vivo; read-out: Rat CL (in vivo clearance)
Method: Two days prior to dosing, female Sprague Dawley rats were prepared by cannulation of the left carotid artery for blood sampling and by cannulation of the right jugular vein for intravenous administration. The catheters were filled with heparin (100 IU/mL), exteriorized at the nape of the neck and sealed. The surgery was performed under isoflurane (Forene®, Abbott) anesthesia. After surgery the rats were housed individually and had free access to food and water. About 16 h prior to dosing the animals were deprived of food, and fasted until 4 h after dosing. The rats had free access to drinking water during the experiment. On the experiment day, the test item formulation was administered orally by gavage or intravenously in the jugular vein. At pre-defined time points, blood samples of about 0.150 mL were withdrawn from the carotid artery up to 24h after dosing. A total of 10 samples were withdrawn. The blood samples were collected in heparinized plastic tubes and centrifuged, within 30 min, for five min at 10 000 g and +4°C. The plasma was transferred to a 96 well plate and stored at -20°C until analysis by LC/MS/MS. The studies were approved by the Göteborg Animal Research Ethical Board.

Chain of Human FXa (P00742 235-488 limits assumed): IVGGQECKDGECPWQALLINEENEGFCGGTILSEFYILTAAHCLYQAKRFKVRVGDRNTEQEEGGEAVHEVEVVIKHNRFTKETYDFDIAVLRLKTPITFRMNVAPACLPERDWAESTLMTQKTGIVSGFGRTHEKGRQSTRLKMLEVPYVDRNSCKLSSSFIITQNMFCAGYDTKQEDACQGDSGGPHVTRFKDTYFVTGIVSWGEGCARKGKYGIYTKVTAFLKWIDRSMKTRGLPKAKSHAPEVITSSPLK
Chain of Human FXa (P00742 41-179 partner limits assumed): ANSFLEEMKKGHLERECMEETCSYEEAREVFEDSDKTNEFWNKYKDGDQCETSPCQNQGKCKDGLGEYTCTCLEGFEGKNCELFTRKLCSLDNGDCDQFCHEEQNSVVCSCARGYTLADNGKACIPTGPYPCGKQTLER
Chain of Human FIXa (P00740 227-461 limits assumed): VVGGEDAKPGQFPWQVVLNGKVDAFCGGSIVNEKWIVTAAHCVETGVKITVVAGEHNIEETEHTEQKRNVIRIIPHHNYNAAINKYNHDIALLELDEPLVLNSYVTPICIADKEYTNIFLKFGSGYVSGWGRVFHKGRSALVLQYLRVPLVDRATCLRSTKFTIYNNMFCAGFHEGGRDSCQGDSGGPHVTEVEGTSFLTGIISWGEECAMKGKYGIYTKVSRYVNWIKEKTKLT
Chain of Human FIXa (P00740 47-191 partner limits assumed): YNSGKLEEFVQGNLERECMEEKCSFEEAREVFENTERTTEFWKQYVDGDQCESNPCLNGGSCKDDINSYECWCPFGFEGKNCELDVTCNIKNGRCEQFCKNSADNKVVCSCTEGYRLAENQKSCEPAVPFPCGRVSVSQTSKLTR

O=C(N[C@@H](Cc1ccccc1)C(=O)NCc1cc(=O)[nH]c2ccc(Cl)cc12)c1ccc2[nH]c(=O)cc(O)c2c1 [Compound 13, (S)-N-(1-{(6-Chloro-2-oxo-1,2-dihydroquinolin-4-yl)methylamino}-1-oxo-3-phenylpropan-2-yl)-4-hydroxy-2-oxo-1,2-dihydroquinoline-6-carboxamide]
inhibition at 99 µM (Human FIXa): 2% | inhibition at 99 µM (Human FXa): 18% | selectivity vs. all proteases in the panel, except PKK [1]: more than five orders of magnitude selectivity | potency against rat FXIa relative to human FXIa (fold less potent) (rat FXIa): about 30000 fold | Caco2 A to B permeability (Caco2 cells): < 0.28 1·10^-6 cm/s | efflux ratio (Caco2 efflux): > 4.6 | Rat CLint (rat hepatocytes): 22 μL/min/ 1·10^6 cells | clearance (In vivo rat PK): 130 mL/min/kg
